One data set deals with cotton aphids. The settings on record: cited from earlier work.
The next data set deals with southern corn rootworm. The following applies: cited from earlier work.
For data set [1], the system named is ova from cat flea (Ctenocephalides felis). Put plainly: Activity against C. felis ova (larval emergence in treated vials). The class given is in vivo. From the text:
Activity Against C. Felis Ova
Evaluation of test compounds against flea ova is a commonly-used assay for the determination of commercial efficacy against these insect parasites (McTier T L et al., Evaluation of the effects of selamectin against adult and immature stages of fleas (Ctenocephalides felis felis) on dogs and cats. Vet Parasitol. 2000 Aug. 23; 91(3-4):201-12; Dryden M et al., Efficacy of a topically applied formulation of metaflumizone on cats against the adult cat flea, flea egg production and hatch, and adult flea emergence. Vet Parasitol. 2007 Dec. 15; 150(3):263-7). Compounds were dissolved in acetone and 100 μl of each solution was placed in 5 ml glass vials and allowed to air dry. Forty ova from cat flea (Ctenocephalides felis) that were less than 48 hours old as well as flea dirt (primarily adult flea fecal material and host dander) were placed in the vials. Vials were covered with paper towels to allow air exchange and incubated at 25° with 90% humidity for 5 days, and the number of larvae were counted.

The test system of another data set is tobacco budworm. The settings on record: cited from earlier work.
Data set [2] deals with Larval-stage lone star ticks (Amblyomma americanum). Briefly: Dip survival assay (larval immersion microassay) against A. americanum larvae. The class given is in vivo. The following applies: submerged 30 minutes, counted after 24 hours. The text has this: Activity Against A. Americanum Larvae in a Dip Survival Assay
Using a previously-described protocol that can effectively predict compound potency against adult ticks in the field (White, W H. et al., An in vitro larval immersion microassay for identifying and characterizing candidate acaricides. J Med Entomol. 2004 November; 41(6):1034-42), test compounds from a dimethyl sulfoxide (DMSO) stock or 2% DMSO alone were dispensed into a round-bottom 96-well plate and mixed with aqueous buffer containing 1% ethanol and 0.2% Triton X100. […] Larval-stage lone star ticks (Amblyomma americanum) were dispensed into the wells containing test compounds and submerged for 30 minutes. The ticks were subsequently dispensed into a tissue biopsy bag, which is allowed to dry for 1 hour. After drying, the bags were incubated at 25° with 95% humidity for 24 hours and the number of live and dead larvae were counted.

For data set [3] the following is noted: rat versus trout liver microsomes; cited from earlier work. (Liver microsomes are vesicles of endoplasmic reticulum, rich in cytochrome P450 enzymes.)
The subject of a further data set is tobacco bud worm. The following applies: tobacco budworm; cited from earlier work.
For a further data set, the system named is cabbage looper. The following applies: cited from earlier work.
Another data set deals with mosquito larvae. The settings on record: cited from earlier work.
The next data set concerns fish, mammals. The following applies: fish versus mammals; cited from earlier work.

Take `CC(C)(C)c1ccc(CCOc2ncnc3ccccc23)cc1` [Formula I, 4-tert-butylphenethyl quinazolin-4-yl ether]: the 50% lethal concentration (LC50) (usually the concentration that kills 50% of the test population) is 2.6 ppm with cotton aphids, 188 ppm in the data set on cabbage looper and 0.725 ppm in the data set on mosquito larvae. Besides, the “activity (LC50)” value in the data set with southern corn rootworm and in the data set with tobacco budworm was “greater than 400 ppm” in each case. In addition, the “Flea larvae emerging, percent of total eggs, from 40 ova after 5 days” value (“Flea larvae emerging, percent” for short) in data set [1] (10 μg per vial) is 10%; in data set [1] (100 μg per vial), 2.5%; in [1] (1 mg per vial), 2.5%. The “Number of flea larvae emerging from 40 ova after 5 days” value (from here on “Number of flea larvae emerging”) in [1] (10 μg per vial) worked out at 4; in [1] (100 μg per vial), 1; in [1] (1 mg per vial) it was 1. The “Number of live/total tick larvae 24 hours after treatment” value is 23/80 in [2] (concentration 0.001%), 0/51 in [2] (concentration 0.01%) and 0/48 in [2] (concentration 0.05%). In [3], the “degradation by liver microsomes” value is listed as “degraded more extensively by rat liver microsomes than by trout liver microsomes”. The metabolism entry in the data set on tobacco bud worm is “extensively metabolized”. For the same molecule, the toxicity entry with fish, mammals is listed as “higher toxicity of the compound to fish than to mammals”.

`CCc1nn(C)c(C(=O)NCc2ccc(C(C)(C)C)cc2)c1Cl` [Formula II, 4-chloro-5-ethyl-2-methyl-N-[(4-tert-butylphenyl)methyl]pyrazole-3-carboxamide]: the “Flea larvae emerging, percent” value in data set [1] (10 μg per vial) was found to be 17.5%; in [1] (100 μg per vial), 2.5%; in data set [1] (1 mg per vial), 2.5%. In addition, the “Number of flea larvae emerging” value amounted to 7 in data set [1] (10 μg per vial), 1 in [1] (100 μg per vial) and 1 in [1] (1 mg per vial). Also, the “Number of live/total tick larvae 24 hours after treatment” value in data set [2] (concentration 0.001%) is 38/85; in [2] (concentration 0.01%), 0/77; in [2] (concentration 0.05%) it was 0/69.

For `CCc1nn(C)c(C(=O)NCc2ccc(Oc3ccc(C)cc3)cc2)c1Cl` [Formula IV, 4-chloro-3-ethyl-1-methyl-N-[4-(p-tolyloxy)benzyl]pyrazole-5-carboxamide], the “Flea larvae emerging, percent” value in data set [1] (10 μg per vial) is reported as 15%; in data set [1] (100 μg per vial), 0 (0%); in [1] (1 mg per vial), 0 (0% ). The figures for the “Number of flea larvae emerging” value in data set [1] (10 μg per vial), in data set [1] (100 μg per vial) and in data set [1] (1 mg per vial) were 6, 0 (0%) and 0 (0% ), respectively. In addition, the “Number of live/total tick larvae 24 hours after treatment” value in [2] (concentration 0.001%) is reported as 58/114; in [2] (concentration 0.01%), 0/79; in data set [2] (concentration 0.05%) it was 0/76.
